Experiments:
Assay in all cases: kinome screen (33PanQinase)
Type in all cases: biochemical
FAK = target: T1, FAK (Homo sapiens, UniProt Q05397)
T1 construct: purchased Reaction Biology Europe GmbH (formerly ProQinase)
Method: (§1) The Kinome Screening was performed by Reaction Biology Europe GmbH (http://reactionbiology.com; Freiburg i. Br., Germany).

CAMK2B = target: T2, CAMK2B (Homo sapiens, UniProt Q13554)
T2 construct: purchased Reaction Biology Europe GmbH (formerly ProQinase)
Method: as §1

TXK = target: T3, TXK (Homo sapiens, UniProt P42681)
T3 construct: purchased Reaction Biology Europe GmbH (formerly ProQinase)
T3 sequence (P42681 1-527): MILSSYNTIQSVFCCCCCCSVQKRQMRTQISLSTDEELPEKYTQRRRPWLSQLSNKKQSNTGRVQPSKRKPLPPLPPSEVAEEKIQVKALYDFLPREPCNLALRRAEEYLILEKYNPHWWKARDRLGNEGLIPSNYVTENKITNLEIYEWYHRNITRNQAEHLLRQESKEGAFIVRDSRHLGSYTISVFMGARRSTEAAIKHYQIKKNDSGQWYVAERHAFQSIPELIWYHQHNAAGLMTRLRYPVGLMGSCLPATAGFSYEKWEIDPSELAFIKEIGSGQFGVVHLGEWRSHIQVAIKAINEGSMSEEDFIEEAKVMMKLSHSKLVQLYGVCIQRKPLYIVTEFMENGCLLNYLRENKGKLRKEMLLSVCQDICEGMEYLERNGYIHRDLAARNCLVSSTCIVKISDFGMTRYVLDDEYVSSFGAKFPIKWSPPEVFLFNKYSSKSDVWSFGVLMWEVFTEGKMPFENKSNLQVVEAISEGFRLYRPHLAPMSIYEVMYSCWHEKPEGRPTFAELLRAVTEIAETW
Method: as §1

NEK1 = target: T4, NEK1 (Homo sapiens, UniProt Q96PY6)
T4 construct: purchased Reaction Biology Europe GmbH (formerly ProQinase)
T4 sequence (Q96PY6 1-1258): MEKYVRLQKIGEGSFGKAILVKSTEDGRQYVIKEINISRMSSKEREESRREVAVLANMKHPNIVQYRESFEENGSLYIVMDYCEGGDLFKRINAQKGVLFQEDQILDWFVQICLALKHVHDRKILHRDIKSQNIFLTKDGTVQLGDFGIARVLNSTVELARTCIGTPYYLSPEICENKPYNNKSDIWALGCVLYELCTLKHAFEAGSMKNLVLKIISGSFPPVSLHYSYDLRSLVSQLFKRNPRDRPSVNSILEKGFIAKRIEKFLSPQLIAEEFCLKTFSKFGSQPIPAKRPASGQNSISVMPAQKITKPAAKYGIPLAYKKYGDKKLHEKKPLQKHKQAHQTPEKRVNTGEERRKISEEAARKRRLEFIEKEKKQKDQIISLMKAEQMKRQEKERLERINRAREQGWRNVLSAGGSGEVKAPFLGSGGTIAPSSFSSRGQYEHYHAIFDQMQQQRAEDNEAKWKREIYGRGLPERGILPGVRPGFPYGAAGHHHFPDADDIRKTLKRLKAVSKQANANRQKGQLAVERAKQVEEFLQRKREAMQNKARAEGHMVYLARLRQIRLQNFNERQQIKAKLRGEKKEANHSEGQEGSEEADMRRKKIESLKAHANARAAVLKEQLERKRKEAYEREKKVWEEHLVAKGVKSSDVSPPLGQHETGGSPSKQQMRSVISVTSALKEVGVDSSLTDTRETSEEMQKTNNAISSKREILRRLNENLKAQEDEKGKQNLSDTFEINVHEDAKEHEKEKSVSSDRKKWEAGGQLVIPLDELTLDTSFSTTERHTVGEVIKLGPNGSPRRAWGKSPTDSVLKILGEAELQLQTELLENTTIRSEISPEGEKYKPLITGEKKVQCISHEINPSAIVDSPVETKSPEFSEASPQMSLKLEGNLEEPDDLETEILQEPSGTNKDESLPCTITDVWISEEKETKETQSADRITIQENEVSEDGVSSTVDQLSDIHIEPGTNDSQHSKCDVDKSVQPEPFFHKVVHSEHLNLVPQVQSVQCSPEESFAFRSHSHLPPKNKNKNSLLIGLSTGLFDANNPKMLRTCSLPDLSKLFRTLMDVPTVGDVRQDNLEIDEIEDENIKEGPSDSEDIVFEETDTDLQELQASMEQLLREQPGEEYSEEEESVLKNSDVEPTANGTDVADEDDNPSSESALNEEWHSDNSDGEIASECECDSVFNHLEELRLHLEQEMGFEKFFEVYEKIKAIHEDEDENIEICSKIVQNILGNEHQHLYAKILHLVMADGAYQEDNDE
Method: as §1

PKCΔ = target: T5, PKCΔ (Homo sapiens, UniProt Q05655)
T5 construct: purchased Reaction Biology Europe GmbH (formerly ProQinase)
Method: as §1

JNK3 = target: T6, JNK3 (Homo sapiens, UniProt P53779)
T6 construct: purchased Reaction Biology Europe GmbH (formerly ProQinase)
T6 sequence (P53779 whole entry): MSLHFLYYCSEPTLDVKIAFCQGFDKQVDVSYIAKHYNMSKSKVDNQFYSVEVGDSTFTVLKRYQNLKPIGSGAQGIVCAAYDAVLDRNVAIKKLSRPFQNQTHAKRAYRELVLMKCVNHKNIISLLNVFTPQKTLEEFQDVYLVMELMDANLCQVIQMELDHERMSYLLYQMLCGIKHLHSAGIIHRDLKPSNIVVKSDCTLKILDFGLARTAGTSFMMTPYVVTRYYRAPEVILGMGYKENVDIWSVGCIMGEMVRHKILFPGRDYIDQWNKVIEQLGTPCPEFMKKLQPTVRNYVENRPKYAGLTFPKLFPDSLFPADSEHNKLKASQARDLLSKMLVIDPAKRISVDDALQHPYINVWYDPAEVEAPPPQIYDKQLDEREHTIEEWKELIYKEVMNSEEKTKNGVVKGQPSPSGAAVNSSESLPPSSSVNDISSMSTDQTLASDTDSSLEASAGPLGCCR
Method: as §1

LCK = target: T7, LCK (Homo sapiens, UniProt P06239)
T7 construct: purchased Reaction Biology Europe GmbH (formerly ProQinase)
T7 sequence (P06239 whole entry): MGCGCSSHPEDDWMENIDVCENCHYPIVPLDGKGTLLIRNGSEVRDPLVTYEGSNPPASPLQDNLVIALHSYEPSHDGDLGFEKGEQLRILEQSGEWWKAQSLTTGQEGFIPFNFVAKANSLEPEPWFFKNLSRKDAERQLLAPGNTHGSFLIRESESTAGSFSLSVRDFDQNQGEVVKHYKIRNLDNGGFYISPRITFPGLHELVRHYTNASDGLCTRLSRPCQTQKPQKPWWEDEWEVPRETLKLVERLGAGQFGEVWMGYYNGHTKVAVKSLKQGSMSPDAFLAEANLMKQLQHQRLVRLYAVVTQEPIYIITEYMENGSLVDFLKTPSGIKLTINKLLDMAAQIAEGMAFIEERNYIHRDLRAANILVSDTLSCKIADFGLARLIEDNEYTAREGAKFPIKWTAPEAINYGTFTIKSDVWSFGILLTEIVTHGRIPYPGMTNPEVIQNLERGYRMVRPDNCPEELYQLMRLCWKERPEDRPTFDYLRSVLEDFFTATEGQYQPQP
Method: as §1

CDK1/CycA2 = target: T8, CDK1/CycA2 (Homo sapiens, UniProt P06493)
T8 construct: purchased Reaction Biology Europe GmbH (formerly ProQinase)
Method: as §1

PASK = target: T9, PASK (Homo sapiens, UniProt Q96RG2)
T9 construct: purchased Reaction Biology Europe GmbH (formerly ProQinase)
T9 sequence (Q96RG2 whole entry): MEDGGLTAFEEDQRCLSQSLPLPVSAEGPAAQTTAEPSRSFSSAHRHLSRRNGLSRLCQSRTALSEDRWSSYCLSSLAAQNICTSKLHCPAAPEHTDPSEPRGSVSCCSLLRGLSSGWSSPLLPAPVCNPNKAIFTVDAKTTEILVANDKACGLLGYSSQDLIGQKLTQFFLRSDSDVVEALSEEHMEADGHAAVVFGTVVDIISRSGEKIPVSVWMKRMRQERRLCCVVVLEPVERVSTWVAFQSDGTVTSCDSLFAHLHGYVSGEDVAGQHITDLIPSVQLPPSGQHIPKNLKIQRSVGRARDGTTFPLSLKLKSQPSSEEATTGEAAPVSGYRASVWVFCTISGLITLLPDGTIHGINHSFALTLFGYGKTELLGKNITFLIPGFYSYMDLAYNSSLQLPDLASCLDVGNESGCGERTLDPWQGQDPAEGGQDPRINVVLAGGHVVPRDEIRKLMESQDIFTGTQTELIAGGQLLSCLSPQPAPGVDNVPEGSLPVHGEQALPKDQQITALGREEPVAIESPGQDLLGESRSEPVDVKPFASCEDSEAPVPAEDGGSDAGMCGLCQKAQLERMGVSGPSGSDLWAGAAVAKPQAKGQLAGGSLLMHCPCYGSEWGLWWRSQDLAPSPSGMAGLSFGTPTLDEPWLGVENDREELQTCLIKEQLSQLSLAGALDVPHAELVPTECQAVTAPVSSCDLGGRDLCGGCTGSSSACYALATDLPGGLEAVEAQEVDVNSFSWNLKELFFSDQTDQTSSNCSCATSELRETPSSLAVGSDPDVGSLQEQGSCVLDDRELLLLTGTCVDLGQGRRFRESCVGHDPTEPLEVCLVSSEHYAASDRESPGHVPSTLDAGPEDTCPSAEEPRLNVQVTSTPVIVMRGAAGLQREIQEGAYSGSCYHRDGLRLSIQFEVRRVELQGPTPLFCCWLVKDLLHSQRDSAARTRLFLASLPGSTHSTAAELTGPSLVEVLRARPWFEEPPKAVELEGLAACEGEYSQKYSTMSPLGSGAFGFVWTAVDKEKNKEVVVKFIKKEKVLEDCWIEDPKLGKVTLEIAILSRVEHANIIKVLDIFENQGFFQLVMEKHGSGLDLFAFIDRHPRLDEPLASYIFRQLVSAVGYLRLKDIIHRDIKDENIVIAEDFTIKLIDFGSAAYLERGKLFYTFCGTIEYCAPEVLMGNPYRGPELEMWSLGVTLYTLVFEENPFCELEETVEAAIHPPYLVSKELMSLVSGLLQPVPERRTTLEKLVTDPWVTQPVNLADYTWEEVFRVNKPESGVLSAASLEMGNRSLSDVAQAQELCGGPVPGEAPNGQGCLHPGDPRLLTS
Method: as §1

NEK6 = target: T10, NEK6 (Homo sapiens, UniProt Q9HC98)
T10 construct: purchased Reaction Biology Europe GmbH (formerly ProQinase)
T10 sequence (Q9HC98 whole entry): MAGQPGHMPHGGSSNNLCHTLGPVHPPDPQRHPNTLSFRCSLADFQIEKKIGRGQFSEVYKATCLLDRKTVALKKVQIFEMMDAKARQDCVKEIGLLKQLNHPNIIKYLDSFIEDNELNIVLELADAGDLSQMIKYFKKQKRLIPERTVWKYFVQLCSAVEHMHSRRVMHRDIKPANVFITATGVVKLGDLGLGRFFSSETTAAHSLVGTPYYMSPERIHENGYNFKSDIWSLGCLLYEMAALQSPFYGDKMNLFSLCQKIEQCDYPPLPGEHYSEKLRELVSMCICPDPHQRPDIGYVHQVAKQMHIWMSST
Method: as §1

MINK1 = target: T11, MINK1 (Homo sapiens, UniProt Q8N4C8)
T11 construct: purchased Reaction Biology Europe GmbH (formerly ProQinase)
T11 sequence (Q8N4C8 whole entry): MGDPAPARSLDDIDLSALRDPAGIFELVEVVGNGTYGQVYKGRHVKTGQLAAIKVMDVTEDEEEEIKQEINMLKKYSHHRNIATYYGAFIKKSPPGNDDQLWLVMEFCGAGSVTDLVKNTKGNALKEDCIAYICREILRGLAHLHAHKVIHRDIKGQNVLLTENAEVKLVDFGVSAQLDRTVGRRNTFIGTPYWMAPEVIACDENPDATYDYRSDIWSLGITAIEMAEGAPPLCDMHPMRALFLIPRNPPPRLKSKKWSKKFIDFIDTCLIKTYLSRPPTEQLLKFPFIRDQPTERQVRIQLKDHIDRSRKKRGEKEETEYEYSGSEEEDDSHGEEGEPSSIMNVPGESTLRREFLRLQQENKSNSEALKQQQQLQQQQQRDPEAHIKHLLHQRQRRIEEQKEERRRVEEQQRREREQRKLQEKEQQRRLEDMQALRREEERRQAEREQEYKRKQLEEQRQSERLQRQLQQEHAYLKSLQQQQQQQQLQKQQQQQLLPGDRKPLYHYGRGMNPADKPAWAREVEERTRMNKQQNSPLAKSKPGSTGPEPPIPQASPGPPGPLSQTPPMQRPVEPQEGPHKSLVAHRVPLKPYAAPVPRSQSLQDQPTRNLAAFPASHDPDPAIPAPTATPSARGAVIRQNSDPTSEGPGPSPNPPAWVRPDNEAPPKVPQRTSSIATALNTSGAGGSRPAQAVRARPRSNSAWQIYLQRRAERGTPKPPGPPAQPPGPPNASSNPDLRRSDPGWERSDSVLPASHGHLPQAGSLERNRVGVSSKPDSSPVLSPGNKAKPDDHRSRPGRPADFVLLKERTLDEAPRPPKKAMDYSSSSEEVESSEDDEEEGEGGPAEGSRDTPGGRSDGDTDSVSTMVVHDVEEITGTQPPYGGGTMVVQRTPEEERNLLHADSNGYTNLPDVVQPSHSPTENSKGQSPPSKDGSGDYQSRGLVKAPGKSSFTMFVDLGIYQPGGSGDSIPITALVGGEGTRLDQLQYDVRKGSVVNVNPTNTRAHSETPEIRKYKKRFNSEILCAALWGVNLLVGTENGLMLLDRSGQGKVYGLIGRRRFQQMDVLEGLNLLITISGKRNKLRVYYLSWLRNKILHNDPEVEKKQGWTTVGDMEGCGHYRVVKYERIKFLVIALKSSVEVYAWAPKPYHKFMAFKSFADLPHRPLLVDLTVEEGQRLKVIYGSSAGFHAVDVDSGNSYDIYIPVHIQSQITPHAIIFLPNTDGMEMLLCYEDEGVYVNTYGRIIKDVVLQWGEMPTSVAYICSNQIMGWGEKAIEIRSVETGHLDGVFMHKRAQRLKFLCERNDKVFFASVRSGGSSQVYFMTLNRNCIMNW
Method: as §1

T1 sequence (Q05397 whole entry): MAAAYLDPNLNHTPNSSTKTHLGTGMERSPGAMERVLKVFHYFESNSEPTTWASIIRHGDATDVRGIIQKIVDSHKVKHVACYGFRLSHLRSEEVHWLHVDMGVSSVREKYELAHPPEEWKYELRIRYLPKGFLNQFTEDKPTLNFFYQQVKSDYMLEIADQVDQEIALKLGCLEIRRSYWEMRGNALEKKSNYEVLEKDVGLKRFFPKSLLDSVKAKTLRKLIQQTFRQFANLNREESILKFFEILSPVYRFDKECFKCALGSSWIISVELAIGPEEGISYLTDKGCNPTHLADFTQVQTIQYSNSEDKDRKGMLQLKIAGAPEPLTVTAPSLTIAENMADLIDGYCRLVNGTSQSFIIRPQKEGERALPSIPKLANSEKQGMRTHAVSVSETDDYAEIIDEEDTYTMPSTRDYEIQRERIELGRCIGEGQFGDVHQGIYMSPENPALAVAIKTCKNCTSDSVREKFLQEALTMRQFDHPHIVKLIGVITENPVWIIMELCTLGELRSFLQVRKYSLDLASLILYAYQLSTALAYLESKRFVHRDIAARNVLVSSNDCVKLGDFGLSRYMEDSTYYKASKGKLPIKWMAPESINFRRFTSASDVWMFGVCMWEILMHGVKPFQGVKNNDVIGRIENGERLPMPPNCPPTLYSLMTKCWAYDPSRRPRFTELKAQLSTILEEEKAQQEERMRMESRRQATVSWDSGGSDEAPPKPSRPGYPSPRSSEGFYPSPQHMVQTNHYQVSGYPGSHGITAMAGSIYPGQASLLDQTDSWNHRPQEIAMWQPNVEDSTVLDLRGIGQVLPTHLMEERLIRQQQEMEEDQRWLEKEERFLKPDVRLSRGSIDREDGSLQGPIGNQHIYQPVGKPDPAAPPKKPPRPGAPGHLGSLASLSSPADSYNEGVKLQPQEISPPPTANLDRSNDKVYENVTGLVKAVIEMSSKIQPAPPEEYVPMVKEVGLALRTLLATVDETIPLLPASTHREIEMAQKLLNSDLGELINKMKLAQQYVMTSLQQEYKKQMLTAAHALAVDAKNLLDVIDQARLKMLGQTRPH

| SMILES | residual kinase activity (FAK; 0.3 µM) | residual kinase activity (CAMK2B; 0.3 µM) | residual kinase activity (TXK; 0.3 µM) | residual kinase activity (NEK1; 0.3 µM) | residual kinase activity (PKCΔ; 0.3 µM) | residual kinase activity (JNK3; 0.3 µM) | residual kinase activity (LCK; 0.3 µM) | residual kinase activity (CDK1/CycA2; 0.3 µM) | residual kinase activity (PASK; 0.3 µM) | residual kinase activity (NEK6; 0.3 µM) | residual kinase activity (MINK1; 0.3 µM) | further results |
| --- | --- | --- | --- | --- | --- | --- | --- | --- | --- | --- | --- | --- |
| COc1ccnc2[nH]cc(-c3cc(N)nc(N)c3)c12 [meriolin 16] | 89 % of control | 74 % of control | 90 % of control | 67 % of control | 6 % of control | 68 % of control | 91 % of control | 5 % of control | 39 % of control | 104 % of control | 20 % of control | residual kinase activity (FAK; 0.03 µM): 102 % of control; residual kinase activity (CAMK2B; 0.03 µM): 103 % of control; residual kinase activity (TXK; 0.03 µM): 100 % of control; residual kinase activity (NEK1; 0.03 µM): 86 % of control; residual kinase activity (PKCΔ; 0.03 µM): 47 % of control; residual kinase activity (JNK3; 0.03 µM): 73 % of control; residual kinase activity (LCK; 0.03 µM): 87 % of control; residual kinase activity (CDK1/CycA2; 0.03 µM): 32 % of control; residual kinase activity (PASK; 0.03 µM): 82 % of control; residual kinase activity (NEK6; 0.03 µM): 107 % of control; residual kinase activity (MINK1; 0.03 µM): 75 % of control |
| c1ccc(CNc2cc(-c3c[nH]c4ncccc34)ccn2)cc1 [meriolin 36] | 85 % of control | 83 % of control | 84 % of control | 84 % of control | 4 % of control | 54 % of control | 61 % of control | 2 % of control | 3 % of control | 112 % of control | 2 % of control | residual kinase activity (FAK; 3 µM): 60 % of control; residual kinase activity (CAMK2B; 3 µM): 31 % of control; residual kinase activity (TXK; 3 µM): 35 % of control; residual kinase activity (NEK1; 3 µM): 55 % of control; residual kinase activity (PKCΔ; 3 µM): 0 % of control; residual kinase activity (JNK3; 3 µM): 13 % of control; residual kinase activity (LCK; 3 µM): 18 % of control; residual kinase activity (CDK1/CycA2; 3 µM): 1 % of control; residual kinase activity (PASK; 3 µM): 0 % of control; residual kinase activity (NEK6; 3 µM): 108 % of control; residual kinase activity (MINK1; 3 µM): 0 % of control |
